Measurements as given in the NIST ThermoML archive (doi:10.1021/acs.jced.5b00246).
Several values for one entry are separate records, joined by “and”; a condition that tells them apart may be missing. Equal values may be shown once.

Settings: 101.33 kPa, Liquid, NMR spin-echo technique

C1COCCO1 [1,4-dioxane]
Settings | self diffusion coefficient [m2/s]
288.31 K | 9.1e-10
288.33 K | 8.97e-10
293.11 K | 1.03e-09
298.13 K | 1.1e-09
298.17 K | 1.12e-09
298.18 K | 1.09e-09
298.2 K | 1.13e-09
303.12 K | 1.24e-09
307.92 K | 1.3e-09
308.06 K | 1.32e-09
317.85 K | 1.55e-09
318.24 K | 1.57e-09
327.94 K | 1.79e-09
327.95 K | 1.81e-09
338.09 K | 2.15e-09
338.12 K | 2.09e-09
338.13 K | 2.11e-09
347.87 K | 2.37e-09
347.97 K | 2.43e-09
358.25 K | 2.66e-09
358.49 K | 2.66e-09

CC(C)CCCC(C)CCCC(C)CCCCC(C)CCCC(C)CCCC(C)C (stereo not given) [2,6,10,15,19,23-hexamethyltetracosane]
Settings | self diffusion coefficient [m2/s]
270.4 K | 5.32e-12
273 K | 6.72e-12
283.3 K | 1.34e-11
283.6 K | 1.32e-11
288.28 K | 1.81e-11
293.13 K | 2.19e-11
293.19 K | 2.26e-11
298 K | 2.79e-11
298.19 K | 2.88e-11
298.44 K | 2.91e-11
303 K | 3.57e-11
303.18 K | 3.69e-11
312.99 K | 5.7e-11
314.3 K | 5.7e-11
322.69 K | 8.15e-11
322.72 K | 8.24e-11
323.16 K | 8.12e-11
325.7 K | 8.83e-11
333.03 K | 1.17e-10
333.49 K | 1.14e-10
334.8 K | 1.18e-10
342.81 K | 1.5e-10
344.9 K | 1.6e-10
348.2 K | 1.74e-10
352.82 K | 1.96e-10
353.15 K | 1.98e-10
362.6 K | 2.44e-10
362.82 K | 2.5e-10
362.88 K | 2.6e-10

CCCCC(CC)COC(=O)c1ccccc1C(=O)OCC(CC)CCCC (stereo not given) [bis(2-ethylhexyl) 1,2-benzenedicarboxylate]
Settings | self diffusion coefficient [m2/s]
268 K | 1.31e-12
273 K | 2.05e-12
283 K | 4.57e-12
298.1 K | 1.24e-11
303.18 K | 1.71e-11
303.2 K | 1.86e-11
312.89 K | 2.91e-11
313.2 K | 3.05e-11
322.7 K | 4.5e-11
322.84 K | 4.53e-11
322.88 K | 4.53e-11
323.03 K | 4.57e-11
323.05 K | 4.57e-11
323.1 K | 4.73e-11
332.7 K | 6.93e-11
333.16 K | 6.74e-11
333.2 K | 6.78e-11
342.5 K | 9.48e-11
343.65 K | 9.74e-11
343.7 K | 9.79e-11
352.86 K | 1.3e-10
352.88 K | 1.31e-10
362.72 K | 1.69e-10
362.75 K | 1.72e-10

C1CCCCC1 [cyclohexane]
Settings | self diffusion coefficient [m2/s]
283.47 K | 1.07e-09
283.53 K | 1.09e-09
288.31 K | 1.19e-09
288.32 K | 1.2e-09
298.12 K | 1.46e-09
298.15 K | 1.47e-09
308.02 K | 1.73e-09
308.03 K | 1.76e-09
308.16 K | 1.71e-09
308.17 K | 1.72e-09
317.68 K | 2.03e-09
317.73 K | 2.08e-09
318.22 K | 2.05e-09
318.25 K | 2.05e-09
323.04 K | 2.23e-09
328.13 K | 2.47e-09
328.15 K | 2.47e-09
333.02 K | 2.6e-09
333.05 K | 2.65e-09
342.79 K | 2.97e-09
348.16 K | 3.25e-09

C[S+](C)[O-] [dimethyl sulfoxide]
Settings | self diffusion coefficient [m2/s]
293.09 K | 6.55e-10
298.26 K | 7.46e-10
298.29 K | 7.45e-10
308.1 K | 9.1e-10
318.03 K | 1.12e-09
328.1 K | 1.34e-09
338.12 K | 1.59e-09
348.17 K | 1.84e-09
363.71 K | 2.29e-09

CCCCCCCCCCCC [dodecane]
Settings | self diffusion coefficient [m2/s]
264.14 K | 3.95e-10
266.5 K | 4.2e-10
268.03 K | 4.37e-10
278.2 K | 5.59e-10
278.52 K | 5.63e-10
278.56 K | 5.64e-10
278.72 K | 5.66e-10
288.09 K | 6.97e-10
288.49 K | 7.03e-10
288.52 K | 7.03e-10
298.15 K | 8.56e-10
298.2 K | 8.57e-10
298.21 K | 8.57e-10
308.15 K | 1.03e-09
308.16 K | 1.04e-09
318.15 K | 1.22e-09
318.16 K | 1.23e-09
323.17 K | 1.33e-09
328.17 K | 1.43e-09
328.22 K | 1.44e-09
328.25 K | 1.47e-09
333.14 K | 1.54e-09
337.93 K | 1.67e-09
337.97 K | 1.66e-09
337.99 K | 1.67e-09
348.08 K | 1.92e-09
352.75 K | 2.07e-09
352.77 K | 2.04e-09
364.53 K | 2.44e-09
364.54 K | 2.41e-09

CCCCCO [pentan-1-ol]
Settings | self diffusion coefficient
253.13 K | 5.27e-11 m2/s
253.19 K | 5.32e-11 m2/s
258.42 K | 6.61e-11 m2/s
258.47 K | 6.61e-11 m2/s
263.25 K | 8.06e-11 m2/s
263.28 K | 8.11e-11 m2/s
268.65 K | 1.01e-10 m2/s
268.66 K | 1.02e-10 m2/s
278.4 K | 1.51e-10 m2/s
278.43 K | 1.52e-10 m2/s
288.31 K | 2.17e-10 m2/s
288.33 K | 2.17e-10 m2/s
298.16 K | 3.01e-10 m2/s
298.17 K | 3e-10 m2/s
298.19 K | 2.99e-10 m2/s
298.21 K | 3.02e-10 m2/s
298.27 K | 3.02e-10 m2/s
308.09 K | 4.13e-10 m2/s
308.11 K | 4.14e-10 m2/s
318.08 K | 5.54e-10 m2/s
318.09 K | 5.56e-10 m2/s
323.1 K | 6.39e-10 m2/s
323.15 K | 6.43e-10 m2/s
327.86 K | 7.3e-10 m2/s and 7.36e-10 m2/s
337.71 K | 9.56e-10 m2/s
337.74 K | 9.49e-10 m2/s
347.21 K | 1.22e-09 m2/s
347.25 K | 1.22e-09 m2/s
352.35 K | 1.4e-09 m2/s
352.36 K | 1.4e-09 m2/s
352.55 K | 1.41e-09 m2/s
364.52 K | 1.84e-09 m2/s
364.59 K | 1.83e-09 m2/s
364.73 K | 1.83e-09 m2/s

Cc1ccccc1 [toluene]
Settings | self diffusion coefficient
239.09 K | 7.12e-10 m2/s
240.94 K | 7.53e-10 m2/s
248.57 K | 8.98e-10 m2/s
251.71 K | 9.77e-10 m2/s
253.27 K | 1.01e-09 m2/s
253.28 K | 1.01e-09 m2/s
258.16 K | 1.13e-09 m2/s
258.23 K | 1.13e-09 m2/s
263.51 K | 1.24e-09 m2/s
268.32 K | 1.38e-09 m2/s
273.43 K | 1.5e-09 m2/s
273.54 K | 1.52e-09 m2/s
278.07 K | 1.67e-09 m2/s
278.15 K | 1.67e-09 m2/s
288.05 K | 1.98e-09 m2/s
293.08 K | 2.13e-09 m2/s
298 K | 2.3e-09 m2/s
298.18 K | 2.27e-09 m2/s
298.2 K | 2.32e-09 m2/s
298.21 K | 2.28e-09 m2/s and 2.3e-09 m2/s
308.07 K | 2.71e-09 m2/s
322.69 K | 3.15e-09 m2/s
323.16 K | 3.32e-09 m2/s
323.18 K | 3.3e-09 m2/s
332.93 K | 3.56e-09 m2/s
333.16 K | 3.56e-09 m2/s
343.45 K | 4.09e-09 m2/s
